Measured values: ChEMBL document CHEMBL1152299, “Indazole-based liver X receptor (LXR) modulators with maintained atherosclerotic lesion reduction activity but diminished stimulation of hepatic triglyceride synthesis” (J Med Chem, 2008)

Assays:
[1] = tested on: HepG2; assay: Effect on triglyceride accumulation in human HepG2 cells relative to TO901317; type: functional
[2] = tested on: THP-1; assay: Effect on ABCA1 gene expression in human differentiated THP1 cells relative to TO901317; type: functional
[3] = tested on: THP-1; assay: Stimulation of [3H]cholesterol efflux in human THP1 foam cells loaded with ac-LDL relative to TO901317; type: functional
[4] = tested on: HepG2; assay: Effect on SREBP1c gene expression in human HepG2 cells; type: functional, cell-based
[5] = tested on: THP-1; assay: Stimulation of [3H]cholesterol efflux in human THP1 foam cells loaded with ac-LDL; type: functional, cell-based
[6] = molecular target: T1, Oxysterols receptor LXR-alpha (Homo sapiens, UniProt Q13133)
[7] = molecular target: T2, Progesterone receptor (Homo sapiens, UniProt P06401); assay: Displacement of radiolabeled progesterone from human progesterone receptor by filter paper assay
T2 sequence (P06401 whole entry): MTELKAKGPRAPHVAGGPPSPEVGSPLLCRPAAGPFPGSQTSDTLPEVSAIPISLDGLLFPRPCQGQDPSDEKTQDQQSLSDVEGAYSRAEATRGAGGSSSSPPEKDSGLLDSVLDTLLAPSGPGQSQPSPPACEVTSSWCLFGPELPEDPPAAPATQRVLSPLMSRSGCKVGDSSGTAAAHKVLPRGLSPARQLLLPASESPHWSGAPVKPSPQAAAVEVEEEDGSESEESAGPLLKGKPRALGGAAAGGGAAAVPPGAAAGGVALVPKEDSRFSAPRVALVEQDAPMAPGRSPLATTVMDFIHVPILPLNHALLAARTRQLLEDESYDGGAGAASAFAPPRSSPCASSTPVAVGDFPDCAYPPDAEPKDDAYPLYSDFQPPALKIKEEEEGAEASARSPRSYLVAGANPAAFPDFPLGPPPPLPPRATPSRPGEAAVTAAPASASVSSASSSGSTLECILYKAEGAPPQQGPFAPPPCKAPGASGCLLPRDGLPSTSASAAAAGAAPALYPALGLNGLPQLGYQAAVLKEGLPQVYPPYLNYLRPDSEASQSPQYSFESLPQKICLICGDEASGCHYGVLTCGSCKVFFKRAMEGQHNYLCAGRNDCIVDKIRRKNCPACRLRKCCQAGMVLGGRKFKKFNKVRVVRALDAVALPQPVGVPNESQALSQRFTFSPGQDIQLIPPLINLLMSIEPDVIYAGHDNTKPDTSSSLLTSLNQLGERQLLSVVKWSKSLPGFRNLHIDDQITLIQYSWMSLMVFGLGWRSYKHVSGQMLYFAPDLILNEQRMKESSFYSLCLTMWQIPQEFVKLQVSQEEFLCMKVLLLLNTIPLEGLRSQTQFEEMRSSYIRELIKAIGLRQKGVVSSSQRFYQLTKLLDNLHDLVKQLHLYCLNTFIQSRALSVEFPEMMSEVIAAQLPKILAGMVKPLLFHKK

[8] = molecular target: T3, Oxysterols receptor LXR-beta (Homo sapiens, UniProt P55055)
T3 sequence (P55055 whole entry): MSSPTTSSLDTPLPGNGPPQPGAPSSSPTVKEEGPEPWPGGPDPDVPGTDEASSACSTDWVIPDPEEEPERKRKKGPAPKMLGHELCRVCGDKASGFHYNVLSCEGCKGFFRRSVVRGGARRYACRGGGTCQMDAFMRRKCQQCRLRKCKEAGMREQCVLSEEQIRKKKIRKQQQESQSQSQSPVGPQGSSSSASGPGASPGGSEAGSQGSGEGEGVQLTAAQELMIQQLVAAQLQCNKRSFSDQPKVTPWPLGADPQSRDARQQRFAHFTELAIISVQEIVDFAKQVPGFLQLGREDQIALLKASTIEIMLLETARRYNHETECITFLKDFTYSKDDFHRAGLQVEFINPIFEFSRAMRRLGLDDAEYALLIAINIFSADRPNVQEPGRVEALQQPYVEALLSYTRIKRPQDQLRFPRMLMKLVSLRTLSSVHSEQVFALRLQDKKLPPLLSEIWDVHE

[9] = tested on: THP-1; assay: Effect on ABCA1 gene expression in human differentiated THP1 cells; type: functional, cell-based
[10] = tested on: HepG2; assay: Effect on SREBP1c gene expression in human HepG2 cells relative to TO901317; type: functional
[11] = molecular target: T4, Nuclear receptor subfamily 1 group I member 2 (Homo sapiens, UniProt O75469)
T4 sequence (O75469 whole entry): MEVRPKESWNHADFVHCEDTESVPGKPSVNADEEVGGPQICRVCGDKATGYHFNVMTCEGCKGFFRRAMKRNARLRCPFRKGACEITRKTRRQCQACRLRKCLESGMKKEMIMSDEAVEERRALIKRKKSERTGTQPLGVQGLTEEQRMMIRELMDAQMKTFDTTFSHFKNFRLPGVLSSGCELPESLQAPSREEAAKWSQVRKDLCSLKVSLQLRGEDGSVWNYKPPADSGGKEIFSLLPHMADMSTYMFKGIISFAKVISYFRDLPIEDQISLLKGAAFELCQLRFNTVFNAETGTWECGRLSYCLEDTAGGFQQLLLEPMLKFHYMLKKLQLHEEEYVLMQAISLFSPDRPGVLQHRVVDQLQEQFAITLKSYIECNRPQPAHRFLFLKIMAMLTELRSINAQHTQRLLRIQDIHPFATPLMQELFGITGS

[12] = molecular target: T1, Oxysterols receptor LXR-alpha; remark: listed apart in the source
[13] = molecular target: T5, Glucocorticoid receptor (Homo sapiens, UniProt P04150); assay: Displacement of radiolabeled Dexamethasone from human glucocorticoid receptor by filter paper assay
T5 sequence (P04150 whole entry): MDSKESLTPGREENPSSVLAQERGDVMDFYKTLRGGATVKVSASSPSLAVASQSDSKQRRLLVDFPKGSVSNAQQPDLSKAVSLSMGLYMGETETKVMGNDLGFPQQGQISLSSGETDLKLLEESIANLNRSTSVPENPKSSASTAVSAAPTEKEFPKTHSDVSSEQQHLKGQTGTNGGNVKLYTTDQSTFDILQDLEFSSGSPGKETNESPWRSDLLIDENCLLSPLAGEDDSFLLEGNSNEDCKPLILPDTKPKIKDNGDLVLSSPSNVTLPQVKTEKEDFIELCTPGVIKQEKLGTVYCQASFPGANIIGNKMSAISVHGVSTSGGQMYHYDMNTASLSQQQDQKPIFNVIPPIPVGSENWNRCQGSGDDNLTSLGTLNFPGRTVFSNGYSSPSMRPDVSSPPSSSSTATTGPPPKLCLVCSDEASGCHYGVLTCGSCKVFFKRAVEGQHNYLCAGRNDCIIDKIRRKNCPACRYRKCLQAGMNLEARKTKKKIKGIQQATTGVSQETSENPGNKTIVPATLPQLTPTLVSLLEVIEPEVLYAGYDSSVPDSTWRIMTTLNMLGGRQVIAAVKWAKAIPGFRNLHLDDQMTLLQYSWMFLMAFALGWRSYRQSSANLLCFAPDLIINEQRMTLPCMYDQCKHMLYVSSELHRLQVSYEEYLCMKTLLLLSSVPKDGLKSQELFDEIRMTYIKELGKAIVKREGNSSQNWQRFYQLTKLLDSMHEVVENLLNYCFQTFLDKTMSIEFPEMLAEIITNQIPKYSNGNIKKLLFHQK

Row | EC50 [4] | EC50 [5] | IC50 [6] | IC50 [7] | IC50 [8] | EC50 [9] | IC50 [11] | EC50 [12] | IC50 [13] | SMILES | Efficacy [1] | Efficacy [2] | Efficacy [3] | Efficacy [10]
1 | 2110 nM | 1280 nM | 179 nM | > 1000 nM | 24 nM | 541 nM | 1770 nM | 6660 nM | 1000 nM | Fc1ccc(-c2c3cccc(C(F)(F)F)c3nn2Cc2ccc(F)cc2Cl)cc1 [LXR-623] | 35% | 100% | 140% | 58%
2 | 1220 nM | 549 nM | 248 nM | > 10000 nM | 33 nM | 551 nM | 2160 nM | 6100 nM | 7200 nM | Fc1ccc(-c2c3cccc(C(F)(F)F)c3nn2Cc2ccccc2F)cc1 | 38% | 89% | 132% | 72%
